Source: patent US7098364B2, “Phenylethanolamine compounds as β2-receptor agonists, and methods of use and preparation thereof” (Shenyang Pharmaceutical University, priority 2001, dated 2006)

Tested on: isolated guinea pig trachea strips
Assay: Antagonistic effect on histamine-induced bronchoconstriction in isolated guinea pig trachea strips
Format: cell-based
Settings: trachea strips contracted by histamine (10^-6-10^-4 M) to 50% of maximum contraction; compounds at 10^-6 or 3×10^-4 M; Krebs-Hensleit solution, 37° C.
Procedure: The antagonistic effects of bronchoconstrtriction induced by histamine of the compounds of the present invention were evaluated by isolated guinea pig trachea strips.
Apparatus: polygrapher recorder, strain gauge transducer
Conditions: Krebs-Hensleit solution; gas mixture(95% O2, 5% CO2); Paper speed: 4 mm/min; 37° C.
Animals: guinea pigs (Harley, purchased from the Experimental Animal Center of China Medical University) of either sex weighting 350–500 g were used.
Reagent: Histamines phosphate solution(10^−6–10^−4M)
Method: Guinea pigs were sacrificed and the trachea strips(2 cm×3 mm) were prepared; the preparation was then mounted under a testing tension of 2 g in an organ bath containing 10 mL Kebs-Hensleits solution at 37° C. and superfused with the gas mixture mentioned above and the preparation was allowed to equilibrate for 2 h before the addition of histamine. When the tension of trachea strips reached 50% of the maximum contraction, the tested compounds was added to bath, and the antagonistic effect (represented as relaxing rate) was calculated as below: Relaxing rate=(Contraction intensity after histamine addition-Contraction intensity after tested compounds addition)/[…]×100%

SMILES	Relaxing rate (%)
CC(C)NC(CO)c1cc(Br)c(N)c(C#N)c1.Cl (stereo not drawn)	77.6
CC(C)NC(CO)c1cc(Cl)c(N)c(C#N)c1.Cl.Cl (stereo not drawn) [drawing 7]	69.2
Cl.Nc1c(Br)cc(C(CO)NC2CC2)cc1C(F)(F)F (stereo not drawn)	10.2
CC(C)NC(CO)c1cc(Cl)c(N)c(C(F)(F)F)c1.Cl (stereo not drawn)	52.5
CC(C)(CO)NC(CO)c1cc(Br)c(N)c(C#N)c1.Cl (stereo not drawn)	89.6
Cl.Cl.N#Cc1cc(C(CO)NC2CC2)ccc1N (stereo not drawn)	15.7
CC(C)(CO)NC(CO)c1cc(Cl)c(N)c(C(F)(F)F)c1.Cl (stereo not drawn)	85.1
CC(C)(C)NC(CO)c1ccc(N)c(C(F)(F)F)c1.Cl (stereo not drawn)	55.6
Cl.N#Cc1cc(C(CO)NC2CCC2)ccc1N (stereo not drawn)	18.9
CC(C)NC(CO)c1cc(Cl)c(N)c(C#N)c1.Cl.Cl (stereo not drawn) [drawing 20]	70.5
CC(C)NC(CO)c1ccc(N)c(C#N)c1.Cl (stereo not drawn)	60.3
Br.CC(C)(C)NC(CO)c1cc(Cl)c(N)c(C(F)(F)F)c1 (stereo not drawn)	165.9
Cl.N#Cc1cc(C(CO)NC2CCC2)cc(Cl)c1N (stereo not drawn)	36.7
CC(C)(CO)NC(CO)c1cc(Br)c(N)c(C(F)(F)F)c1.Cl (stereo not drawn)	128.2
CC(C)(CO)NC(CO)c1cc(Cl)c(N)c(C#N)c1.Cl.Cl (stereo not drawn)	15.3
Cl.Cl.N#Cc1cc(C(CO)NC2CCC2)cc(Br)c1N (stereo not drawn)	30.8
Cl.Nc1c(Br)cc(C(CO)NC2CCC2)cc1C(F)(F)F (stereo not drawn)	12.9
CC(C)(CO)NC(CO)c1ccc(N)c(C#N)c1.Cl (stereo not drawn)	65.3
